Experimental data as given in patent publication US20250171447A1, “ADENOSINE RECEPTOR ANTAGONISTS, PHARMACEUTICAL COMPOSITIONS AND THEIR USE THEREOF” (Merck Sharp & Dohme LLC, priority 2022, published 2025).

Experiments:
[1] = biological target: human A2A adenosine receptor (Homo sapiens (Human), UniProt P29274); test: A2A receptor affinity binding assay (radioligand filtration binding or SPA, [3H]SCH58261); conditions: membranes from HEK293 or CHO cells expressing human A2A; Method (A) filtration or Method (B) SPA
[2] = biological target: human A2B adenosine receptor (Homo sapiens (Human), UniProt P29275); test: A2B binding affinity radioligand filtration binding assay; conditions: membranes from HEK293 cells expressing human A2B; tritiated proprietary A2B antagonist
Chain of human A2B adenosine receptor (P29275 whole entry): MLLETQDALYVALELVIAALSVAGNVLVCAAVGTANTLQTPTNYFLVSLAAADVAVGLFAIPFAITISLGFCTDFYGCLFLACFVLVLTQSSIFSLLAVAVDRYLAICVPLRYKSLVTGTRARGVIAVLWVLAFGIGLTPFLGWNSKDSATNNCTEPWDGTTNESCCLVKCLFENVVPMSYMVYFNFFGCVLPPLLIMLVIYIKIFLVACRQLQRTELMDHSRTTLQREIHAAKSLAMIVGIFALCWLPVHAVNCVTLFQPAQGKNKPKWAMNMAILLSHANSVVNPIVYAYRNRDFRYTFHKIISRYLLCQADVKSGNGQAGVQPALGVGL

Chain of human A2A adenosine receptor (P29274 whole entry): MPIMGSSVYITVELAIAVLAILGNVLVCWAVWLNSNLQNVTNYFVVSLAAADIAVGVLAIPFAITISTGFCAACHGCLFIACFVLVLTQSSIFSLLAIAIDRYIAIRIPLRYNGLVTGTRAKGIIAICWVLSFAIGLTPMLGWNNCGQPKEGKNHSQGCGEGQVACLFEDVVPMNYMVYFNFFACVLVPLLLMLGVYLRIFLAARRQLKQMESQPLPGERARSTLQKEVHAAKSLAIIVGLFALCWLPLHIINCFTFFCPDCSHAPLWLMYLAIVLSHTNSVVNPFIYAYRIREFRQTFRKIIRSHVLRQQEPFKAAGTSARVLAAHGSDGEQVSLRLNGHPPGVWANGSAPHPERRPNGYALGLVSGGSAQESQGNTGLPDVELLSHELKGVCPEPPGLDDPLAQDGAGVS

Structure (SMILES) | IC50 [1] [nM] | IC50 [2] [nM]
COc1cccc2c1nc(N)n1nc(C3CC3c3cncc(F)c3)nc21 (stereo not drawn) [Ex-18, 2-[2-(5-fluoropyridin-3-yl)cyclopropyl]-7-methoxy[1,2,4]triazolo [1,5-c]quinazolin-5-amine] | 5.5 | 252
COc1cccc2c1nc(N)n1nc(C3CC3c3cn4ccnc4cc3C)nc21 (stereo not drawn) [Ex-7] | 1.3 | 66.1
COc1cccc2c1nc(N)n1nc(C3CC3c3nc4ccccc4n3C)nc21 (stereo not drawn) [Ex-3, 7-methoxy-2-[2-(1-methyl-1H-benzimidazol-2-yl)cyclopropyl][1,2,4] triazolo[1,5-c] quinazolin-5-amine] | – | 2.9
COc1cccc2c1nc(N)n1nc([C@H]3C[C@H](c4ccccc4)C3)nc21 [Ex-136, 7-methoxy-2-((1r,3r)-3-phenylcyclobutyl)-[1,2,4]triazolo[1,5-c]quinazolin-5-amine] | 2.2 | 116
COc1cccc2c1nc(N)n1nc([C@H]3C[C@H](c4ncc(C(C)(C)N)cc4C)C3)nc21 [Ex-83, 2-((1r,3r)-3-(5-(2-aminopropan-2-yl)-3-methylpyridin-2-yl)cyclobutyl)-7-methoxy-[1,2,4]triazolo[1,5-c]quinazolin-5-amine] | – | 1.6
COc1cccc2c1nc(N)n1nc(C3CC3c3ccc4cnn(C)c4c3)nc21 (stereo not drawn) [Ex-21, 7-methoxy-2-[2-(1-methyl-1H-indazol-6-yl)cyclopropyl][1,2,4] triazolo[1,5-c] quinazolin-5-amine] | 6.9 | 104
COc1cccc2c1nc(N)n1nc([C@H]3C[C@@](O)(c4ccc(C(C)(C)O)cn4)C3)nc21 [Ex-137, (1r,3r)-3-(5-amino-7-methoxy-[1,2,4]triazolo[1,5-c]quinazolin-2-yl)-1-(5-(2-hydroxypropan-2-yl)pyridin-2-yl)cyclobutan-1-ol] | 4 | 2.1
COc1cccc2c1nc(N)n1nc([C@H]3C[C@@H](c4ccccc4)C3)nc21 [Ex-135, 7-methoxy-2-((1s,3s)-3-phenylcyclobutyl)-[1,2,4]triazolo[1,5-c]quinazolin-5-amine] | 7.3 | 35.3
COc1cccc2c1nc(N)n1nc(C3CC3c3ccc(C(N)=O)c(F)c3)nc21 (stereo not drawn) [Ex-17, 4-[2-(5-amino-7-methoxy[1,2,4]triazolo [1,5-c]quinazolin-2-yl)cyclopropyl]-2-fluorobenzamide] | 4.1 | 40.7
COc1cccc2c1nc(N)n1nc(C3CC3c3cnc(NCCO)nc3)nc21 (stereo not drawn) [Ex-22, 2-({5-[2-(5-amino-7-methoxy[1,2,4]triazolo [1,5-c]quinazolin-2-yl)cyclopropyl]pyrimidin-2-yl}amino)ethan-1-ol] | 7.7 | 133
COc1cccc2c1nc(N)n1nc([C@H]3C[C@H](c4ccc(C(C)(C)N)cn4)C3)nc21 [Ex-68, 2-((1r,3r)-3-(5-(2-aminopropan-2-yl)pyridin-2-yl)cyclobutyl)-7-methoxy-[1,2,4]triazolo[1,5-c]quinazolin-5-amine] | 2 | 2.2
COc1cccc2c1nc(N)n1nc(C3CC3c3ccccc3[C@@H](C)O)nc21 (stereo partly drawn) [Ex-12, (1R)-1-{2-[2-(5-amino-7-methoxy[1,2,4]triazolo [1,5-c]quinazolin-2-yl)cyclopropyl]phenyl} ethan-1-ol] | 3.2 | 281
COc1cccc2c1nc(N)n1nc([C@H]3C[C@@H](c4ccc([C@@H](N)C(F)(F)F)nc4)C3)nc21 [Ex-95, 2-[(1s,3s)-3-{6-[(1R)-1-amino-2,2,2-trifluoroethyl]pyridin-3-yl}cyclobutyl]-7-methoxy[1,2,4]triazolo[1,5-c]quinazolin-5-amine] | 2.9 | –
COc1cccc2c1nc(N)n1nc([C@H]3C[C@@H](c4ccc(N5CCN(C)CC5)nc4)C3)nc21 [Ex-115, 7-methoxy-2-{cis-3-[6-(4-methylpiperazin-1-yl)pyridin-3-yl]cyclobutyl}[1,2,4]triazolo[1,5-c]quinazolin-5-amine] | 1.7 | –
COc1cccc2c1nc(N)n1nc([C@H]3C[C@@H](c4ccc(C(C)(N)C(F)F)nc4)C3)nc21 (stereo partly drawn) [Ex-91, 2-{(1s,3s)-3-[6-(2-amino-1,1-difluoropropan-2-yl)pyridin-3-yl]cyclobutyl}-7-methoxy[1,2,4]triazolo[1,5-c]quinazolin-5-amine] | 1.1 | –
COc1cccc2c1nc(N)n1nc(C3CC(c4ccc([C@@H](N)C(F)(F)F)nc4)C3)nc21 (stereo partly drawn) [Ex-96, 2-[(1r,3r)-3-{6-[(1R)-1-amino-2,2,2-trifluoroethyl]pyridin-3-yl}cyclobutyl]-7-methoxy[1,2,4]triazolo[1,5-c]quinazolin-5-amine] | 14 | –
Cc1nc(C(C)(C)N)cnc1[C@H]1C[C@H](c2nc3c4cccc(Cl)c4nc(N)n3n2)C1 [Ex-127, 2-((1r,3r)-3-(5-(2-aminopropan-2-yl)-3-methylpyrazin-2-yl)cyclobutyl)-7-chloro-[1,2,4]triazolo[1,5-c]quinazolin-5-amine] | 2.9 | –
COc1cccc2c1nc(N)n1nc([C@H]3C[C@@H](c4ccc(C(C)N)cn4)C3)nc21 (stereo partly drawn) [Ex-71, 2-{cis-3-[5-(1-aminoethyl)pyridin-2-yl]cyclobutyl}-7-methoxy[1,2,4]triazolo[1,5-c]quinazolin-5-amine] | 18.4 | –

Structure (SMILES) | IC50 [1] [nM] | IC50 [2] [nM]
COc1cccc2c1nc(N)n1nc([C@H]3C[C@H](c4ncc(C5(N)COC5)cc4C)C3)nc21 [Ex-124, 2-{trans-3-[5-(3-aminooxetan-3-yl)-3-methylpyridin-2-yl]cyclobutyl}-7-methoxy[1,2,4]triazolo[1,5-c]quinazolin-5-amine] | 0.4 | –
Cc1nc(C(C)(C)N)cnc1[C@H]1C[C@H](c2nc3c4cccc(F)c4nc(N)n3n2)C1 [Ex-133, 2-{trans-3-[5-(2-aminopropan-2-yl)-3-methylpyrazin-2-yl]cyclobutyl}-7-fluoro[1,2,4]triazolo[1,5-c]quinazolin-5-amine] | 5.7 | –
COc1cc(F)cc2c1nc(N)n1nc(C3CC3C(C)(C)O)nc21 (stereo not drawn) [Ex-28, 2-(2-(5-amino-9-fluoro-7-methoxy-[1,2,4]triazolo[1,5-c]quinazolin-2-yl)cyclopropyl)propan-2-ol] | 1.5 | –
COc1cccc2c1nc(N)n1nc([C@H]3C[C@H](c4ncc5c(n4)CNC5)C3)nc21 (single isomer, unassigned) [Ex-108, 2-((trans)-3-(6,7-dihydro-5H-pyrrolo[3,4-d]pyrimidin-2-yl)cyclobutyl)-7-methoxy-[1,2,4]triazolo[1,5-c]quinazolin-5-amine] | 10.7 | –
COc1cccc2c1nc(N)n1nc([C@H]3C[C@@H](c4ncc(C5(O)COC5)cc4C)C3)nc21 [Ex-119, 3-{6-[cis-3-(5-amino-7-methoxy[1,2,4]triazolo[1,5-c]quinazolin-2-yl)cyclobutyl]-5-methylpyridin-3-yl}oxetan-3-ol] | 1.8 | –
COc1cccc2c1nc(N)n1nc([C@H]3C[C@@H](c4cnc(C(C)(C)N)c(C)n4)C3)nc21 [Ex-122, 2-((1s,3s)-3-(5-(2-aminopropan-2-yl)-6-methylpyrazin-2-yl)cyclobutyl)-7-methoxy-[1,2,4]triazolo[1,5-c]quinazolin-5-amine] | 15.9 | –
COc1cccc2c1nc(N)n1nc([C@H]3C[C@H](c4ccc([C@@H](N)C(F)F)cn4)C3)nc21 (single isomer, unassigned) [Ex-106] | 4.1 | –
COc1cccc2c1nc(N)n1nc([C@H]3C[C@H](c4ccc([C@H](N)C(F)(F)F)cn4)C3)nc21 [Ex-77, 2-(trans-3-{5-[(1S)-1-amino-2,2,2-trifluoroethyl]pyridin-2-yl}cyclobutyl)-7-methoxy[1,2,4]triazolo[1,5-c]quinazolin-5-amine] | 1.3 | –
COc1cccc2c1nc(N)n1nc([C@H]3C[C@H](c4ncc(C(C)(C)N)nc4C(F)(F)F)C3)nc21 [Ex-126, 2-{trans-3-[5-(2-aminopropan-2-yl)-3-(trifluoromethyl)pyrazin-2-yl]cyclobutyl}-7-methoxy[1,2,4]triazolo[1,5-c]quinazolin-5-amine] | 4.6 | –
COc1cccc2c1nc(N)n1nc([C@H]3C[C@H](c4cc(C)c(C(C)(C)N)cn4)C3)nc21 [Ex-81, 2-{trans-3-[5-(2-aminopropan-2-yl)-4-methylpyridin-2-yl]cyclobutyl}-7-methoxy[1,2,4]triazolo[1,5-c]quinazolin-5-amine] | 4.8 | –
COc1cccc2c1nc(N)n1nc([C@H]3C[C@H](c4ccc(C(C)N)cn4)C3)nc21 (stereo partly drawn) [Ex-72, 2-{trans-3-[5-(1-aminoethyl)pyridin-2-yl]cyclobutyl}-7-methoxy[1,2,4]triazolo[1,5-c]quinazolin-5-amine] | 7.9 | –
COc1cccc2c1nc(N)n1nc([C@H]3C[C@@H](c4cnc(CN)nc4)C3)nc21 [Ex-112, 2-{(cis)-3-[2-(aminomethyl)pyrimidin-5-yl]cyclobutyl}-7-methoxy[1,2,4]triazolo[1,5-c]quinazolin-5-amine] | 4.2 | –
COc1cc(F)cc2c1nc(N)n1nc([C@H]3C[C@@H](c4ccccc4C(C)(C)O)C3)nc21 (single isomer, unassigned) [Ex-52] | 3 | –
COc1cccc2c1nc(N)n1nc([C@H]3C[C@H](c4ccc([C@@H](N)C(F)(F)F)cn4)C3)nc21 (single isomer, unassigned) [Ex-93] | 2.3 | –
COc1cccc2c1nc(N)n1nc([C@H]3C[C@@H](c4ccc(C(C)(C)N)c(C)n4)C3)nc21 (single isomer, unassigned) [Ex-118, 2-{cis-3-[5-(2-aminopropan-2-yl)-6-methylpyridin-2-yl]cyclobutyl}-7-methoxy[1,2,4]triazolo[1,5-c]quinazolin-5-amine] | 4.8 | –
COc1cccc2c1nc(N)n1nc([C@H]3C[C@@H](c4ccc(C(C)(C)O)cc4)C3)nc21 [Ex-42, 2-(4-((1s,3s)-3-(5-amino-7-methoxy-[1,2,4]triazolo[1,5-c]quinazolin-2-yl)cyclobutyl)phenyl)propan-2-ol] | 0.6 | –
COc1cccc2c1nc(N)n1nc([C@H]3C[C@@H](c4ncc(C(C)(C)N)cc4Cl)C3)nc21 (single isomer, unassigned) [Ex-88, 2-{cis-3-[5-(2-aminopropan-2-yl)-3-chloropyridin-2-yl]cyclobutyl}-7-methoxy[1,2,4]triazolo[1,5-c]quinazolin-5-amine] | 6.6 | –
